Reference: ChEMBL document CHEMBL1201862, “PubChem BioAssay data set” (2004)
Active and inactive are the calls of the source. For most assays here, no stated cut-off is given here; in the data, actives have a measured EC50 and inactives only a lower limit.

Assays:
[1] = molecular target: Cytochrome P450 3A4 (Homo sapiens, UniProt P08684);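 further: CYP3A4 tested as one member of a cytochrome P450 panel screen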
[2] = molecular target: Cytochrome P450 2C9 (Homo sapiens, UniProt P11712)
[3] = NIH3T3 cell viability loss – ATP luminescence, mouse fibroblasts, counter-screen, dose response (AID 2010); type: functional, cell-based;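 further: cells exposed to compound for about 90 hours before reading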
[4] = Trypanosoma cruzi growth suppression in host cells – NIH3T3 host cells, beta-gal luminescence, confirmation (AID 2044); type: functional, cell-based;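 further: intracellular parasites grown in NIH/3T3 mouse fibroblasts as host cells; luminescent beta-galactosidase reporter signal from transgenic T. cruzi replicating inside host cells; inhibitors lower the luminescence signal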
[5] = Luminescence Cell-Based Dose Confirmation HTS to Identify Activators of 5'UTR Stem-Loop Driven Alpha-Synuclein mRNA Translation in H4 Neuroglioblastoma Cells. [Related pubchem assays: 1829 (Project Summary), 1814 (Primary HTS)]; type: functional
[6] = Luminescence Cell-Based Dose Response HTS to Identify Activators of Luciferase Translation or Activity in H4 […] Cells. [Related pubchem assays: 1829 (Project Summary), 1814 (Primary HTS)]; type: functional
[7] = test system: H4; assay: Luminescence Cell-Based Dose Response HTS to Identify Activators of 5'UTR Stem-Loop Driven Prion Protein mRNA Translation in H4 Neuroglioblastoma Cells. [Related pubchem assays: 1829 (Project Summary), 1814 (Primary HTS)]; type: functional; conditions: Homo sapiens
[8] = test system: Streptococcus; assay: GAS UMAA2166 growth inhibition – luminescence, BacTiterGlo, counter-screen for streptokinase expression inhibitor project, dose response (AID 1915); type: functional, organism-based;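 further: potency for reduction of bacterial viability or growth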
[9] = test system: Streptococcus sp. 'group A'; assay: Streptococcus pyogenes SK(-)GAS viability under kanamycin – luminescence, BacTiterGlo, confirmation, counter-screen for streptokinase expression inhibitor project, dose response (AID 1900); type: functional, organism-based
[10] = molecular target: T1, Corticotropin-releasing factor receptor 2/Corticotropin-releasing factor-binding protein (Homo sapiens, UniProt P24387+Q13324); assay: activators of CRF receptor 2 with binding protein – uHTS hits, confirmation (AID 602473); type: functional; conditions: read-out: EC50_Mean
T1 sequence (Q13324 whole entry): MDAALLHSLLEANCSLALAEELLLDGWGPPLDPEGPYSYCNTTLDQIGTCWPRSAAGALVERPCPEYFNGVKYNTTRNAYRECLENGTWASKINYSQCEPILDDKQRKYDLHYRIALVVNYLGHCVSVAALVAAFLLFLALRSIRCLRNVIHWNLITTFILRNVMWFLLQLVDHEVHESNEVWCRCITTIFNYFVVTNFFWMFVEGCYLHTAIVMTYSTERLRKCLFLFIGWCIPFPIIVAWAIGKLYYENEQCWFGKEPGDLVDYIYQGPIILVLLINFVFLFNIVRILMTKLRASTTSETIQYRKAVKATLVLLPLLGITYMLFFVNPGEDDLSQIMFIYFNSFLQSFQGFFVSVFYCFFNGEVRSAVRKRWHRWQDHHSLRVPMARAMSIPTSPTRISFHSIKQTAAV
T1 sequence (P24387 whole entry): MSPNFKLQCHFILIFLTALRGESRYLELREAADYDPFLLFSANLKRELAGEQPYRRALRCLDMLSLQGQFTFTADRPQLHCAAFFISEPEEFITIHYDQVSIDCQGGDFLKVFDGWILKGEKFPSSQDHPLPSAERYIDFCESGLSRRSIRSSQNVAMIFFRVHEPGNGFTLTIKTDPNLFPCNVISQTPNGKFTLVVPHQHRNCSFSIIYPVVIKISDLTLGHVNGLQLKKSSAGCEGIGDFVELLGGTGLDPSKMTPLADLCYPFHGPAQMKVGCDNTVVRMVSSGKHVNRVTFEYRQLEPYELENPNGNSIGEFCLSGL

Sequence of Cytochrome P450 3A4 (P08684 whole entry): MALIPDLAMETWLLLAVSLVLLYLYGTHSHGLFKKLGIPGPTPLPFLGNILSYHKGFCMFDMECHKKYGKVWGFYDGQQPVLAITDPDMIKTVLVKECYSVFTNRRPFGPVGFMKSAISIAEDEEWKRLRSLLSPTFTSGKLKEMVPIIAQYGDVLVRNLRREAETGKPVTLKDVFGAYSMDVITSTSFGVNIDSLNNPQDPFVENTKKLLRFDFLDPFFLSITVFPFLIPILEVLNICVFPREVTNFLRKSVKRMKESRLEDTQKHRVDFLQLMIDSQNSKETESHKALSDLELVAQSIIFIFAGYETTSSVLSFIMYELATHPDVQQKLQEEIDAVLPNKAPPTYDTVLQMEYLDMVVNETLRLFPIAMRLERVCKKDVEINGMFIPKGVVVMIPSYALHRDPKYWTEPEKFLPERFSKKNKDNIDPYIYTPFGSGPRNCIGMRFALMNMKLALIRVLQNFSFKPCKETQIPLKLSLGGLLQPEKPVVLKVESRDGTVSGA
Sequence of Cytochrome P450 2C9 (P11712 whole entry): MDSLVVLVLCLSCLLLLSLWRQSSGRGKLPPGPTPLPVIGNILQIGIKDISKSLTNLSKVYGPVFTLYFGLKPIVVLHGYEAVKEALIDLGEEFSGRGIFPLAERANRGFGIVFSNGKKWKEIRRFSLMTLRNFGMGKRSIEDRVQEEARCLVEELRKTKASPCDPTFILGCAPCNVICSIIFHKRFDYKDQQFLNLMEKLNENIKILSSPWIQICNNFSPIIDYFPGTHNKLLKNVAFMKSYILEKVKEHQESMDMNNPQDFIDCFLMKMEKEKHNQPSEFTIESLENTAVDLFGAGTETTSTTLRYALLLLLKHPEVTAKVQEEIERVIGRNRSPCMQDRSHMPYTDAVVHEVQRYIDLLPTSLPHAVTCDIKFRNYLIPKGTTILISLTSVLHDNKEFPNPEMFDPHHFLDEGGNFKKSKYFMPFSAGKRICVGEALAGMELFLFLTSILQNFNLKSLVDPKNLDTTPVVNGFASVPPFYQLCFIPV

Row | SMILES | EC50 [5] | EC50 [6] | EC50 [7] | further results
1 | COc1ccc(N=C(S)Nc2ncccc2C)c(OC)c1 | – | – | – | AC50 [1]: 39.8 µM (inconclusive); AC50 [2]: 20 µM (inconclusive)
2 | Cc1cccc2nc(-c3ccccc3)nc(N3CCC(O)(c4ccc(Cl)cc4)CC3)c12 | – | – | – | EC50 [3]: > 60 µM (not active); EC50 [4]: 0.301 µM (active)
3 | Cc1nc(S(=O)(=O)N(C)c2ccccc2)c(C#N)c(C)c1Cl | – | – | – | AC50 [2]: 17.8 µM (inconclusive)
4 | Nc1nonc1-c1noc(CCCN2C(=O)c3ccccc3C2=O)n1 | 12.9 µM (active) | 12.1 µM (active) | 15.7 µM (active) | –
5 | CC(c1ccon1)N(C)Cc1c[nH]nc1-c1ccc(-c2ccccc2)cc1 (stereo unspecified) | > 120 µM (not active) | 30.5 µM (active) | > 120 µM (not active) | –
6 | CCCCn1nc(C(=O)Nc2nc3c(s2)CCCC3)c2ccccc2c1=O | – | – | – | EC50 [3]: > 60 µM (inconclusive); EC50 [4]: 1.73 µM (active)
7 | CCc1nnc(NC(=O)/C=C/c2ccco2)s1 | 13.7 µM (active) | 54.5 µM (active) | 6.44 µM (active) | –
8 | CC1CNC(=Nc2cccc3ccccc23)S1 (stereo unspecified) | – | – | – | AC50 [1]: 15.8 µM (inconclusive); AC50 [2]: 14.1 µM (inconclusive)
9 | CC1CCN(CC(=O)Nc2cccc([N+](=O)[O-])c2)CC1 | – | – | – | AC50 [2]: 15.8 µM (inconclusive)
10 | COc1cc(/C=C/C(=O)OCC(=O)c2c(N)n(C)c(=O)n(C)c2=O)ccc1OCC#N | – | – | – | EC50 [8]: 4.1 µM (active); EC50 [9]: 7.23 µM (active)
11 | Cc1nn(C(C)C(=O)N2CCc3ccccc32)c(C)c1[N+](=O)[O-] (stereo unspecified) | – | – | – | AC50 [1]: 17.8 µM (inconclusive)
12 | O=C(Nc1ccc2c(c1)OCO2)N1CCN(c2ccccc2)CC1 | > 120 µM (not active) | 16.2 µM (active) | 10.3 µM (active) | –
13 | CS(=O)(=O)N(Cc1ccccc1)c1ccc(C(=O)N2CCOCC2)cc1 | – | – | – | EC50 [10]: > 53 µM (inactive)
14 | Cc1ccc(OCCn2cnc3ccccc3c2=O)c([N+](=O)[O-])c1 | 0.247 µM (active) | 2.44 µM (active) | – | –
15 | C=CCN=C(S)N1CCN(c2ncc3c(=O)c(C(=O)O)cn(CC)c3n2)CC1 | – | – | – | AC50 [2]: 0.224 µM (inconclusive)
16 | CCOC(=O)Cc1cc(-c2ccc(OC)cc2)nc2ccc3ccccc3c12 | 9.64 µM (active) | 12.6 µM (active) | 15.6 µM (active) | –
17 | COc1ccc(C(=N)NOC(=O)c2c(-c3ccccc3Cl)noc2C)cc1OC | – | – | – | EC50 [3]: 10.7 µM (active); EC50 [4]: 1.49 µM (active)
18 | COC(=O)c1ccc(N2OC3(C)C=CC2CC3)cc1 (stereo unspecified) | 9.96 µM (active) | 5.16 µM (active) | 13.5 µM (active) | –
19 | O=C(CCOc1ccccc1)Nc1ccccc1 | – | – | – | AC50 [1]: 22.4 µM (inconclusive); AC50 [2]: 1 µM (inconclusive)
20 | CCOC(=O)C1CCN(c2nnc(N3CCCC3=O)s2)CC1 | 3.42 µM (active) | 6.58 µM (active) | 33 µM (active) | –
21 | Cc1ccc(CN2C(=O)N/C(=C/c3cc(C)n(-c4ccccn4)c3C)C2=O)cc1 | 11.9 µM (active) | 7.26 µM (active) | > 120 µM (not active) | –
22 | CCOC(=O)c1c(NC(=O)CSc2nnc(-c3ccncc3)n2Cc2ccco2)sc(C)c1C | – | – | – | EC50 [3]: > 60 µM (not active); EC50 [4]: 2.9 µM (active)
23 | CN(CCNC(=O)C1CC(=O)N(c2ccc(F)c(Cl)c2)C1)Cc1ccccc1 (stereo unspecified) | – | – | – | EC50 [3]: > 60 µM (not active); EC50 [4]: 0.22 µM (active)
24 | Cc1ncc(CC(=O)n2cc(C(=O)c3cc(Cl)ccc3O)cn2)s1 | 16.5 µM (active) | > 120 µM (not active) | 40.2 µM (active) | –
25 | CC1CCC(=C(C#N)c2nc(-c3cc4ccccc4oc3=O)cs2)CC1 (stereo unspecified) | – | 0.106 µM (active) | – | –
26 | Cc1ccc(S(=O)(=O)Nc2ccc(N3CCN(C)CC3)nc2)cc1 | – | – | – | EC50 [3]: > 60 µM (not active); EC50 [4]: 1.26 µM (active)

Row | SMILES | EC50 [5] | EC50 [6] | EC50 [7] | further results
27 | COc1ccc(-c2cc(-c3ccccc3)c(C#N)c(SCC(=O)Nc3ncc(C)s3)n2)cc1 | – | – | – | EC50 [3]: > 60 µM (inconclusive); EC50 [4]: > 60 µM (not active)
28 | Cc1ccc(N2CCN(c3ccc(C)cc3)C2c2cccnc2)cc1 | – | – | – | EC50 [3]: > 60 µM (not active); EC50 [4]: 0.768 µM (active)
29 | CC1(C)CC(=O)c2cc(NC=C(C(=O)c3ccccc3)C(=O)c3ccccc3)c(=O)oc2C1 | 15.6 µM (active) | > 60 µM (not active) | > 120 µM (not active) | –
30 | Nn1c(CSc2ccccn2)nc2ccccc2c1=O | 42.9 µM (active) | 35.2 µM (active) | 23.3 µM (active) | –
31 | CN(C)c1ccc(-c2nccc(Nc3ccc(F)cc3)n2)cc1 | – | – | – | AC50 [2]: 0.631 µM (inconclusive)
32 | Cc1cccc(CCN2CCN=C2Nc2ccccc2)c1 | – | – | – | EC50 [10]: 14 µM (active)
33 | O=C(c1c[nH]cc1-c1ccccc1)c1cccc2ccccc12 | – | – | – | EC50 [3]: 4.49 µM (active); EC50 [4]: 1.93 µM (active)
34 | Sc1ncnc2scc(-c3ccc(Cl)cc3)c12 | – | – | – | EC50 [8]: 47.4 µM (active); EC50 [9]: 13.1 µM (active)
35 | O=C(Nc1ccc2c[nH]nc2c1)c1ccc(Cl)c(S(=O)(=O)N2CCOCC2)c1 | 6.56 µM (active) | 42.2 µM (active) | 27.6 µM (active) | –
36 | COc1ccc(C(CNc2ccc(S(=O)(=O)N3CCCC3)cc2[N+](=O)[O-])N2CCCC2)cc1 (stereo unspecified) | – | – | – | EC50 [3]: 31.8 µM (active); EC50 [4]: 0.843 µM (active)
37 | CC(C)CC(=O)Nc1ccc(C(=O)COC(=O)Cc2n[nH]c(=O)c3ccccc23)cc1 | – | – | – | EC50 [10]: 12.4 µM (active)
38 | O=C(CCN1C(=O)S/C(=C\C=C\c2ccccc2)C1=O)Nc1ccc(O)cc1 | – | 0.155 µM (active) | 8.5 µM (active) | –
39 | COc1ccc(C(=O)C2=C(O)C(=O)N(c3cc(C)on3)C2c2ccc(OC)c(OC)c2)cc1OC (stereo unspecified) | – | – | – | AC50 [1]: 22.4 µM (inconclusive)
40 | COc1ccc2nc(N3CCN(C(=O)C4COc5ccccc5O4)CC3)sc2c1 (stereo unspecified) | 4.45 µM (active) | 30.7 µM (active) | 12.8 µM (active) | –
41 | S=C(NCc1ccco1)N1CCN(Cc2ccco2)CC1 | – | – | – | AC50 [2]: 14.1 µM (inconclusive)
42 | CC1=C(C#N)C(Nc2ccc(Cl)cn2)(C(F)(F)F)C(=O)N1 (stereo unspecified) | – | – | – | AC50 [1]: 15.8 µM (inconclusive)
43 | CCN(CC)c1nc(C=Cc2ccc(N(C)C)cc2)c2nccnc2n1 | – | – | – | EC50 [10]: 2.56 µM (active)
44 | O=C(COc1ccc(F)cc1)N(Cc1cccs1)C1CCS(=O)(=O)C1 (stereo unspecified) | – | – | – | EC50 [10]: > 53 µM (inactive)
45 | C/C(=N\NC(=S)Nc1cccc(C)c1)c1ccco1 | – | – | – | EC50 [3]: > 60 µM (not active); EC50 [4]: 2.8 µM (active)
46 | O=C(O)c1cc2c(cc1S(=O)(=O)O)[C@H]1[C@@H](C3[C@H]2[C@@]2(Cl)C(Cl)=C(Cl)[C@@]3(Cl)C2(Cl)Cl)[C@]2(Cl)C(Cl)=C(Cl)[C@]1(Cl)C2(Cl)Cl (stereo partly specified) | – | – | – | AC50 [1]: 3.16 µM (inconclusive)
47 | COc1ccc(-c2c/c(=N/c3c(C)n(C)n(-c4ccccc4)c3=O)c3ccccc3o2)cc1 | 11.1 µM (active) | 11.1 µM (active) | 2.02 µM (active) | –
48 | COC(=O)c1ccc(-c2ccc(/C=N/N3C(=O)C4C5C=CC(CC5)C4C3=O)o2)cc1 (stereo unspecified) | 6.71 µM (active) | 19.5 µM (active) | 18.9 µM (active) | –
49 | COc1ccc(/C=C(\NC(=O)c2ccccc2)C(=O)N/N=C/c2ccncc2)cc1 | – | – | – | AC50 [2]: 12.6 µM (active)
50 | CC(=N)/C(C#N)=C(/O)CSc1nnc(Nc2cccc(C)c2)s1 | 10.1 µM (active) | 45.1 µM (active) | > 120 µM (not active) | –
51 | COc1cc(C=C(C#N)C#N)cc(O)c1O | – | – | – | AC50 [1]: 10 µM (inconclusive)
